Measured values published in patent US8450359B2, “Polymer-supported photosensitizers for the generation of singlet oxygen” (The Queen's University of Belfast, priority 2006, dated 2013).
Values joined by “and” are separate entries in the source; they are usually repeats but may differ in a detail not shown here. Equal entries are not always repeated. Where two headings read alike, the source gives them in different places.

Legend:
Pseudomonas aeruginosa = details: for dark activity: intense light series, dark control; for time to activity in light: intense light
Description: (§1) Studies were performed on the photosensitising activity of porphyrin solutions against Staphylococcus epidermidis, Pseudomonas aeruginosa and Proteus mirabilis as these organisms have been isolated from culture-positive cases of infectious endophthalmitis. Studies were performed by adding a porphyrin solution to a culture of the test organism, exposing this mixture to daylight or to a more intense light source comprising 4×250 W halogen bulbs, and then taking a 1 mL aliquot at certain times to determine the viable count.
(§2) 10 mcg/mL solutions of the three porphyrins were investigated. Initially the solutions were made up at the desired concentration and then double filter sterilised.
(§3) Inocula of approximately 1×10^5 cfu/mL were utilised throughout the microbiological studies of porphyrin solutions. Activity was examined both in normal daylight conditions and using a more intense light source comprising 4×250 W halogen bulbs, cooling the temperature to around 32° C.
(§4) Unfiltered and double filter sterilised 10 mcg/mL solutions were used to examine the effect of double filtration on activity.

[1] = test system: Staphylococcus epidermidis; details: for time to dark activity: daylight / laboratory light series; for time to activity in the dark: intense light series; for time to activity on illumination: intense light
Description: as §1, §2, §3, §4

Proteus mirabilis = details: for reduction in viable count: more intense light; for reduction in growth / viable count: 24 hour study, after 24 hours
Description: as §1, §2, §3, §4

[2] = Transient absorbance (triplet lifetime) measurements; type: physicochemical
Description: For the transient absorption and singlet oxygen studies, the second harmonic output from a Q-switched Nd:YAG laser was used as the excitation source and the sample was mounted at […] to the excitation beam. A pulse energy of 1 mJ was used for the measurements to avoid burning the sample. For transient absorption measurements, light from a xenon arc lamp (Applied Photophysics Ltd., 150 W) traveling at 90° to the excitation beam was directed through the sample and into a monochromator (Applied Photophysics Ltd., 1200 gr/mm grating.) fitted with an IP28 photomultiplier detector connected to a sampling oscilloscope (Tektronix TDS 3032). A 532 nm holographic notch filter (Kaiser Optical Systems Inc.) was mounted in front of the monoochromator entrance slit to reduce the effect of laser scatter on the signal. Processing of the data was carried out using SigmaPlot for Windows (Version 8.0).
Transient absorbance difference (ΔA) measurements were carried out under oxygen-bubbled conditions and after degassing by nitrogen-bubbling for 20 minutes. […] However, N2 bubbling was used in the present studies as freeze-pump-thaw was inappropriate for the polymer samples.

[3] = D2O, single exponential decay following the rapid component
Description: The ^1O2 detection system was a liquid-nitrogen-cooled Indium Gallium Arsenide (InGaAs) detector (Judson Technologies Inc, Montgomeryville, Pa., type J22D-M204-R01M-60-1.7) with a 1 mm^2 active area. The detector output was amplified using a Judson PA9 pre-amplifier and collected using a Tektronix TDS 3032 oscilloscope. To obtain acceptable signal-to-noise ratios 512 decays were summed for each reading. To minimise the effect of any inhomogeneity in the sample, readings from 8 different points were averaged, The singlet oxygen emission at 1270 nm was separated from the 1064 nm fundamental laser emission and other spurious emissions by use of a 1200 nm long pass filter (LP1200) and a 1292 nm band pass filter (BPO-1292-80), both supplied by Spectrogon UK Ltd.
Using this approach, the polymers prepared were pre-wetted in buffer prepared with D2O and dipped in porphyrin solutions also prepared from D2O.

[4] = in solution; cited from earlier work
[5] = one hour study, double filter sterilised solution
[6] = one hour study, unfiltered 10 mcg/mL solution
[7] = one hour study, filtered solution
[8] = one hour study, daylight / laboratory light, unfiltered solution
[9] = one hour study, unfiltered solution

SMILES	dark activity (Pseudomonas aeruginosa; one hour study)	time to activity in light (Pseudomonas aeruginosa; [5]) [min]	time to activity in light (Pseudomonas aeruginosa; [6]) [min]	time to dark activity [1, 7]	time to activity (no growth) in light [1, 8] [min]	time to activity in the dark [1, 7] [min]	time to activity in the dark [1, 9] [min]	time to activity on illumination [1, 7] [min]	time to activity on illumination [1, 9] [min]	τ1/μs ([2]; N2 bubbled)	τ1/μs ([2]; O2 bubbled) [μs]	reduction in growth / viable count (Proteus mirabilis; daylight)	reduction in viable count (Proteus mirabilis; by 5 hours)	also measured
C[N+](C)(C)c1ccc(-c2c3nc(c(-c4ccc([N+](C)(C)C)cc4)c4ccc([nH]4)c(-c4ccc([N+](C)(C)C)cc4)c4nc(c(-c5ccc([N+](C)(C)C)cc5)c5ccc2[nH]5)C=C4)C=C3)cc1.[Cl-].[Cl-].[Cl-].[Cl-] [TMAP, tetra(4N,N,N-trimethyl-anilinium)porphine tetrachloride]	some limited dark activity	≤ 30	≤ 30	not active in the dark	≤ 10	≤ 10	≤ 10	≤ 10	≤ 10					reduction of growth (Pseudomonas aeruginosa; 24 hour study, daylight, at 24 hours): 1 log cycle; activity (Pseudomonas aeruginosa; one hour study, daylight): no activity; time to dark activity (no growth in dark control) ([1]; one hour study, daylight series, unfiltered solution, dark control): ≤ 10 min; reduction in viable count (Proteus mirabilis; in 3 hours): three log cycle reduction; activity (Proteus mirabilis; one hour study, daylight): no activity
C[n+]1ccc(-c2c3nc(c(-c4cc[n+](C)cc4)c4ccc([nH]4)c(-c4cc[n+](C)cc4)c4nc(c(-c5cc[n+](C)cc5)c5ccc2[nH]5)C=C4)C=C3)cc1.Cc1ccc(S(=O)(=O)[O-])cc1.Cc1ccc(S(=O)(=O)[O-])cc1.Cc1ccc(S(=O)(=O)[O-])cc1.Cc1ccc(S(=O)(=O)[O-])cc1 [TMPyP, tetra(4N-methylpyridyl)porphine tetratosylate salt]	not active in the dark	≤ 40	≤ 40	≤ 30 min	≤ 10	20	10	≤ 10	≤ 10	161 μs and 161.0 ± 4.51 μs	0.436 ± 0.00062	1 log cycle	three log cycle reduction	triplet lifetime, solution phase ([2]; under O2): 436 ns; photosensitising activity (Pseudomonas aeruginosa; 24 hour study, daylight, 10 mcg/mL solution, inoculum ca. 1×10^5 cfu/mL): no photosensitising activity; time to activity in light ([1]; one hour study, daylight / laboratory light, filtered solution): ≤ 10 min; 1O2 emission decay lifetime [3]: 62 μs
Cl.Cl.O=S(=O)(O)c1ccc(-c2c3nc(c(-c4ccc(S(=O)(=O)O)cc4)c4ccc([nH]4)c(-c4ccc(S(=O)(=O)O)cc4)c4nc(c(-c5ccc(S(=O)(=O)O)cc5)c5ccc2[nH]5)C=C4)C=C3)cc1 [TPPS, tetra(4-sulfonatophenyl)-porphine dihydrochloride]								≤ 50	≤ 40	227.5 ± 6.1 μs	0.760 ± 0.0023	no reduction in viable count	did not show any photosensitising effect	reduction in the viable count (Pseudomonas aeruginosa; more intense source, by 5 hours illumination): one log cycle reduction; time to successful photoinactivation, complete kill ([1]; 24 hour study, daylight): 24 h; φ(1O2) [4]: 0.6717
